Experiments:
Conditions in all cases: scale 0 to 100
ZEAMX = assay: greenhouse pre-emergence treatment, damage to crop plant ZEAMX; format: in vivo, Zea mays
Excerpt: (§1) The seeds of the test plants were sown separately for each species. For the pre-emergence treatment, the active ingredients, which had been suspended or emulsified in water, were applied directly after sowing by means of finely distributing nozzles. The containers were irrigated gently to promote germination and growth and subsequently covered with transparent plastic hoods until the plants had emerged. This cover caused uniform germination of the test plants, unless this has been impaired by the active ingredients. The respective benzoxazinone of formula I was formulated as a 5% by weight strength emulsion concentrate, and the safener of formula II as a 5% by weight emulsion concentrate. Optional component C can be used in its appropriate available formulation type. The benzoxazinone of formula I, the safener of formula II, and optional component C were introduced to the spray liquid with the amount of solvent system used for applying the active compound. The test period extended over 20 days. During this time, the plants were tended, and their response to the treatments with active compound was evaluated. Depending on the species, the plants were kept at 10-25° C. or 20-35° C. During the test period the plants were tended, and their response to the individual treatments was evaluated. Evaluation was carried out using a scale from 0 to 100. 100 means no emergence of the plants, or complete destruction of at least the aerial moieties, and 0 means no damage, or normal course of growth. A good herbicidal activity is given at values of at least 70 and a very good herbicidal activity is given at values of at least 85. A safener action is present if the damage to the crop plant caused by a mixture according to the present invention which contains a benzoxazinone of formula I and a safener of formula II is less than the damage caused when the benzoxazinone of formula I (optionally in mixture with a further herbicide C) according to the present invention is used without the safener of formula II.

TRZAW = assay: greenhouse pre-emergence treatment, damage to crop plant TRZAW; format: in vivo
Excerpt: as §1

ORYSA [1] = assay: greenhouse pre-emergence treatment, damage to crop plant ORYSA; format: in vivo, Oryza sativa
Excerpt: as §1

SETFA [2] = assay: greenhouse pre-emergence treatment, herbicidal action against SETFA; format: in vivo, Setaria faberi
Excerpt: as §1, with “85.” for “85. A safener action is present if the damage to the crop plant caused by a mixture according to the present invention which contains a benzoxazinone of formula I and a safener of formula II is less than the damage caused when the benzoxazinone of formula I (optionally in mixture with a further herbicide C) according to the present invention is used without the safener of formula II.”

ORYSA [3] = assay: greenhouse post-emergence treatment, damage to crop plant ORYSA; format: in vivo, Oryza sativa
Excerpt: (§2) The seeds of the test plants were sown separately for each species. For the post-emergence treatment, the test plants were first grown to a height of 1 to 15 cm, depending on the plant habit, and only then treated with the active ingredients which had been suspended or emulsified in water. For this purpose, the test plants were either sown directly and grown in the same containers, or they were first grown separately as seedlings and transplanted into the test containers a few days prior to treatment. The respective benzoxazinone of formula I was formulated as a 5% by weight strength emulsion concentrate, and the safener of formula II as a 5% by weight emulsion concentrate. Optional component C can be used in its appropriate available formulation type. The benzoxazinone of formula I, the safener of formula II, and optional component C were introduced to the spray liquid with the amount of solvent system used for applying the active compound. The test period extended over 20 days. During this time, the plants were tended, and their response to the treatments with active compound was evaluated. Depending on the species, the plants were kept at 10-25° C. or 20-35° C. During the test period the plants were tended, and their response to the individual treatments was evaluated. Evaluation was carried out using a scale from 0 to 100. […]

SETFA [4] = assay: greenhouse post-emergence treatment, herbicidal action against SETFA; format: in vivo, Setaria faberi
Excerpt: as §2

[5] = Example 1, I.a.35 50 g/ha alone
[6] = Example 2, I.a.35 25 g/ha alone
[7] = Example 3, I.a.35 12.5 g/ha alone
[8] = Example 4, I.a.35 25 g/ha alone
[9] = Example 1, II.a.12 150 g/ha alone
[10] = Example 2, II.a.12 75 g/ha alone
[11] = Example 3, II.a.12 150 g/ha alone
[12] = Example 4, II.a.12 75 g/ha alone

## C#CCN1C(=O)C(F)(F)Oc2cc(F)c(-n3c(=O)n(C)c(=S)n(C)c3=O)cc21 [I.a.35, 1,5-dimethyl-6-thioxo-3-(2,2,7-trifluoro-3-oxo-4-(prop-2-ynyl)-3,4-dihydro-2H-benzo[b][1,4]oxazin-6-yl)-1,3,5-triazinane-2,4-dione]
ZEAMX; [5]
  damage to crop plant ZEAMX: 65
ZEAMX; [6]
  damage to crop plant ZEAMX: 40
ZEAMX; [7]
  damage to crop plant ZEAMX: 25
TRZAW; [5]
  damage to crop plant TRZAW: 65
TRZAW; [6]
  damage to crop plant TRZAW: 60
TRZAW; [7]
  damage to crop plant TRZAW: 45
ORYSA [1]; [5]
  damage to crop plant ORYSA: 65
ORYSA [1]; [6]
  damage to crop plant ORYSA: 40
ORYSA [1]; [7]
  damage to crop plant ORYSA: 30
SETFA [2]; [5]
  herbicidal action against SETFA: 100
SETFA [2]; [6]
  herbicidal action against SETFA: 100
SETFA [2]; [7]
  herbicidal action against SETFA: 90
ORYSA [3]; [8]
  damage to crop plant ORYSA: 60
SETFA [4]; [8]
  herbicidal action against SETFA: 100

## CNC(=O)Nc1ccc(S(=O)(=O)NC(=O)c2ccccc2OC)cc1 [II.a.12]
ZEAMX; [9]
  damage to crop plant ZEAMX: 0
ZEAMX; [10]
  damage to crop plant ZEAMX: 0
ZEAMX; [11]
  damage to crop plant ZEAMX: 0
TRZAW; [9]
  damage to crop plant TRZAW: 0
TRZAW; [10]
  damage to crop plant TRZAW: 0
TRZAW; [11]
  damage to crop plant TRZAW: 0
ORYSA [1]; [9]
  damage to crop plant ORYSA: 0
ORYSA [1]; [10]
  damage to crop plant ORYSA: 0
ORYSA [1]; [11]
  damage to crop plant ORYSA: 0
SETFA [2]; [9]
  herbicidal action against SETFA: 0
SETFA [2]; [10]
  herbicidal action against SETFA: 0
SETFA [2]; [11]
  herbicidal action against SETFA: 0
ORYSA [3]; [12]
  damage to crop plant ORYSA: 0
SETFA [4]; [12]
  herbicidal action against SETFA: 0

Reference: patent US8916501B2, “Herbicidal compositions” (BASF SE, priority 2010, dated 2014)
